{
  "source": "paper PMC5808361",
  "about": "(Journal of Medicinal Chemistry, 2017)",
  "key": {"PRMT3": {"biological_target": "PRMT3 (Homo sapiens, UniProt O60678)", "sequence (O60678 whole entry)": "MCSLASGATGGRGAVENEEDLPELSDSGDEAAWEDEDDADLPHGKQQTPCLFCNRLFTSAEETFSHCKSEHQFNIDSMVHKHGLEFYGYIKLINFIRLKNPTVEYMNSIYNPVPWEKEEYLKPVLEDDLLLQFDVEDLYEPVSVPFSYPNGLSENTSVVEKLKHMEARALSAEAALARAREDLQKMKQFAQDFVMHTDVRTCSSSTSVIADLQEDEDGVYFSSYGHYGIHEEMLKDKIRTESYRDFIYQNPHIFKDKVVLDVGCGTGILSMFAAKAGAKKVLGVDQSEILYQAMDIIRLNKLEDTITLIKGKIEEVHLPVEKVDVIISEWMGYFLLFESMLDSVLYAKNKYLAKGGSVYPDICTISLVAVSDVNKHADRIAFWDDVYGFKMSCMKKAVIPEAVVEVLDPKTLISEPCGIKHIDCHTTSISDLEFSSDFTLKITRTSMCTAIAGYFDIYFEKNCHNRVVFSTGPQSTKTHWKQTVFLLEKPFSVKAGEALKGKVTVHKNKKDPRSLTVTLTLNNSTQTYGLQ", "assay": "PRMT3 biochemical assay"}, "[1]": {"test_system": "55 protein targets (47 GPCRs, five ion channels, and three transporters)", "assay": "CEREP selectivity panel", "format": "binding", "conditions": "at 10 μM"}, "human Flag-tagged PRMT3": {"biological_target": "human Flag-tagged PRMT3 (Homo sapiens, UniProt O60678)", "sequence (O60678 whole entry)": "as above", "assay": "Cellular PRMT3 assay", "format": "cell-based"}, "[2]": {"test_system": "31 other lysine methyltransferases, arginine methyltransferases, and DNA and RNA methyltransferases", "assay": "Methyltransferase selectivity assays", "format": "biochemical", "conditions": "compound concentrations of 1, 5, and 20 μM"}},
  "note": "Where two headings read alike, the source gives them in different places.",
  "data": [
    {"smiles": "CN1CCN(C(=O)CNC(=O)Nc2ccc3cnccc3c2)CC1", "note": "[Compound 18, 1-(Isoquinolin-6-yl)-3-(2-(4-methylpiperazin-1-yl)-2-oxoethyl)urea]", "values": [
      {"measurement": "PRMT3 inhibitory activity (in words)", "setting": "PRMT3; PRMT3 biochemical assay", "value": "loss of the inhibitory activity"}
    ]},
    {"smiles": "CON(C)C(=O)CNC(=O)Nc1ccc2cnccc2c1", "note": "[Compound 22, 2-(3-(Isoquinolin-6-yl)ureido)-N-methoxy-N-methylacetamide]", "values": [
      {"measurement": "fold less potent than 5", "setting": "PRMT3; PRMT3 IC50 relative to compound 5", "value": "around 6 fold"}
    ]},
    {"smiles": "O=C(NCC(=O)N1CC(F)(F)C(F)(F)C1)Nc1ccc2cnccc2c1", "note": "[Compound 29, 1-(Isoquinolin-6-yl)-3-(2-oxo-2-(3,3,4,4-tetrafluoropyrrolidin-1-yl)ethyl)urea]", "values": [
      {"measurement": "% of inhibition (off-target activities)", "setting": "[1]", "value": "< 50", "unit": "%"},
      {"measurement": "effect on H4R3me2a levels (in words)", "setting": "human Flag-tagged PRMT3; 1 μM compound, compared with catalytically dead PRMT3 mutant E335Q", "value": "matched with that of the catalytically dead PRMT3 mutant E335Q"},
      {"measurement": "selectivity for PRMT3 over 31 other methyltransferases (in words)", "setting": "[2]", "value": "highly selective for PRMT3"}
    ]},
    {"smiles": "CC1CCC(C)N1C(=O)CNC(=O)Nc1ccc2cnccc2c1", "note": "(stereo not drawn) [Compound 30, 1-(2-(2,5-Dimethylpyrrolidin-1-yl)-2-oxoethyl)-3-(isoquinolin-6-yl)urea]", "values": [
      {"measurement": "% of inhibition (off-target activities)", "setting": "[1]", "value": "< 50", "unit": "%"}
    ]},
    {"smiles": "O=C(NCC(=O)N1CCCC1)Nc1cc2ccncc2cc1F", "note": "[Compound 36, 1-(7-Fluoroisoquinolin-6-yl)-3-(2-oxo-2-(pyrrolidin-1-yl)ethyl)urea]", "values": [
      {"measurement": "% of inhibition (off-target activities)", "setting": "[1]", "value": "< 50", "unit": "%"},
      {"measurement": "effect on H4R3me2a levels (in words)", "setting": "human Flag-tagged PRMT3", "value": "matched with that of the catalytically dead PRMT3 mutant E335Q"},
      {"measurement": "selectivity for PRMT3 over 31 other methyltransferases (in words)", "setting": "[2]", "value": "highly selective for PRMT3"}
    ]}
  ]
}
